ChEMBL document CHEMBL1129135, “Synthesis and antitumor evaluation of paclitaxel phosphonooxymethyl ethers: a novel class of water soluble paclitaxel pro-drugs” (1996)

Columns and labels:
Format in all cases: functional
Details in all cases: route intraperitoneal
Mus musculus [1] = experiment: Compound was tested in vivo for its efficacy against the M109 murine tumor model at the dose of 200 mg/kg/inj after ip administration
Mus musculus [2] = experiment: Compound was tested in vivo for its efficacy against the M109 murine tumor model at the dose of 60 mg/kg/injection after ip administration (Data reported with reference to Paclitaxel)
Mus musculus [3] = experiment: Compound was tested in vivo for its efficacy against the M109 murine tumor model at the dose of 64 mg/kg/injection after ip administration
Mus musculus [4] = experiment: Compound was tested in vivo for its efficacy against the M109 murine tumor model at the dose of 44 mg/kg/injection after ip administration (Data reported with reference to Paclitaxel)

Row | Compound | T/C (Mus musculus [1]) | T/C (Mus musculus [2]) | T/C (Mus musculus [3]) | T/C (Mus musculus [4])
1 | CC(=O)O[C@H]1C(=O)[C@@]2(C)[C@H]([C@H](OC(=O)c3ccccc3)[C@]3(O)C[C@H](OC(=O)[C@H](OCOP(=O)(O)O)[C@@H](NC(=O)c4ccccc4)c4ccccc4)C(C)=C1C3(C)C)[C@]1(OC(C)=O)CO[C@@H]1C[C@@H]2O | 144% | 237% |  | 
2 | CCOC(=O)O[C@@H](C(=O)O[C@H]1C[C@@]2(O)[C@@H](OC(=O)c3ccccc3)[C@@H]3[C@]4(OC(C)=O)CO[C@@H]4C[C@H](OCOP(=O)(O)O)[C@@]3(C)C(=O)[C@H](OC(C)=O)C(=C1C)C2(C)C)[C@@H](NC(=O)c1ccccc1)c1ccccc1 |  |  | 188% | 175%
